Peptide text beside a SMILES is read from it. * marks the point of attachment. Cbz = O=C(OCc1ccccc1)*
Test: inhibition of 26S proteasome fluorogenic peptide cleavage, counter-screen for 26S proteasome disassembly project, biochemical, fluorogenic peptides, secondary (AID 2132)
Conditions: yeast 26S proteasome, peptide cleavage rate with compound, at 100 µM, stronger effect = lower value

Row | cleavage rate (fluorescence units/min) (with Ac-RLR-amc) | cleavage rate (fluorescence units/min) (with Ac-nLPnLD-amc) | cleavage rate (fluorescence units/min) (with Suc-LLVY-amc) | SMILES
1 | 0.32 | 0.2 | 0.52 | CC(=O)N1C(=O)C(=C2C=C(C)OC(C)=C2)c2ccccc21
2 | 0.41 | 0.11 | 0 | CC(C)C[C@@H](C=O)NC(=O)[C@H](CC(C)C)NC(=O)[C@H](CC(C)C)NC(=O)OCc1ccccc1 (Cbz-Leu-Leu-Leu-aldehyde)

— PubChem BioAssay AID2132 (NMMLSC, 2009)
